Results as given in PubChem BioAssay (NCI).
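Exposure lasted 48 hours, with cells grown in 96-well plates and compounds tested at five concentrations. At the TGI there is no net growth.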

How the values were obtained:
Assay in all cases: NCI tumour cell line growth inhibition, 48 h
KM12 colon = system: KM12 colon
MCF7 breast = system: MCF7 breast
OVCAR-3 ovarian = system: OVCAR-3 ovarian
ACHN renal = system: ACHN renal
PC-3 prostate = system: PC-3 prostate
MDA-MB-231 breast = system: MDA-MB-231 breast
T-47D breast = system: T-47D breast
SK-OV-3 ovarian = system: SK-OV-3 ovarian
RXF 393 renal = system: RXF 393 renal
UACC-62 melanoma = system: UACC-62 melanoma
SR leukemia = system: SR leukemia
COLO 205 colon = system: COLO 205 colon
SK-MEL-2 melanoma = system: SK-MEL-2 melanoma
EKVX NSCLC = system: EKVX NSCLC
MALME-3M melanoma = system: MALME-3M melanoma
SNB-75 CNS = system: SNB-75 CNS
HOP-92 NSCLC = system: HOP-92 NSCLC
MDA-MB-435 = system: MDA-MB-435
SNB-19 CNS = system: SNB-19 CNS
A549 NSCLC = system: A549 NSCLC
HS 578T breast = system: HS 578T breast
MOLT-4 leukemia = system: MOLT-4 leukemia
UO-31 renal = system: UO-31 renal
HOP-62 NSCLC = system: HOP-62 NSCLC
SW-620 colon = system: SW-620 colon
NCI/ADR-RES ovarian = system: NCI/ADR-RES ovarian
NCI-H460 lung = system: NCI-H460 lung
OVCAR-4 ovarian = system: OVCAR-4 ovarian
TK-10 renal = system: TK-10 renal
SF-295 CNS = system: SF-295 CNS
HCC-2998 colon = system: HCC-2998 colon
786-0 renal = system: 786-0 renal
OVCAR-8 ovarian = system: OVCAR-8 ovarian
HCT-15 colon = system: HCT-15 colon
HCT-116 colon = system: HCT-116 colon
IGROV1 ovarian = system: IGROV1 ovarian
SF-539 CNS = system: SF-539 CNS
M14 melanoma = system: M14 melanoma
U251 CNS = system: U251 CNS
SK-MEL-5 melanoma = system: SK-MEL-5 melanoma
CAKI-1 renal = system: CAKI-1 renal
K-562 leukemia = system: K-562 leukemia
SF-268 CNS = system: SF-268 CNS
HT29 colon = system: HT29 colon
UACC-257 melanoma = system: UACC-257 melanoma
CCRF-CEM leukemia = system: CCRF-CEM leukemia
NCI-H522 lung = system: NCI-H522 lung
RPMI-8226 leukemia = system: RPMI-8226 leukemia
A498 renal = system: A498 renal
OVCAR-5 ovarian = system: OVCAR-5 ovarian
HL-60(TB) leukemia = system: HL-60(TB) leukemia
LOX IMVI melanoma = system: LOX IMVI melanoma
SK-MEL-28 melanoma = system: SK-MEL-28 melanoma
BT-549 breast = system: BT-549 breast
SN12C renal = system: SN12C renal
MDA-N = system: MDA-N
NCI-H23 lung = system: NCI-H23 lung
NCI-H226 lung = system: NCI-H226 lung
DU-145 prostate = system: DU-145 prostate

SMILES: C=CCNC1=C2C[C@@H](C)C[C@@H](OC)[C@H](OC(=O)CCN(C)C)[C@H](C)/C=C(\C)[C@@H](OC(N)=O)[C@H](OC)/C=C\C=C(/C)C(=O)NC(=CC1=O)C2=O
- TGI (KM12 colon): 1.98 µM
- TGI (MCF7 breast): 14.9 µM
- TGI (OVCAR-3 ovarian): 3.61 µM
- TGI (ACHN renal): 22.2 µM
- TGI (PC-3 prostate): 14.3 µM
- TGI (MDA-MB-231 breast): 8.89 µM
- TGI (T-47D breast): 12.8 µM
- TGI (SK-OV-3 ovarian): 2.73 µM
- TGI (RXF 393 renal): 11.7 µM
- TGI (UACC-62 melanoma): 11.9 µM
- TGI (SR leukemia): > 32.5 µM
- TGI (COLO 205 colon): 1.23 µM
- TGI (SK-MEL-2 melanoma): 12.2 µM
- TGI (EKVX NSCLC): 22.9 µM
- TGI (MALME-3M melanoma): 19.2 µM
- TGI (SNB-75 CNS): 0.741 µM
- TGI (HOP-92 NSCLC): 29.2 µM
- TGI (MDA-MB-435): 13.2 µM
- TGI (SNB-19 CNS): 23.1 µM
- TGI (A549 NSCLC): 17.4 µM
- TGI (HS 578T breast): 40.4 µM
- TGI (MOLT-4 leukemia): > 40.6 µM
- TGI (UO-31 renal): 27.1 µM
- TGI (HOP-62 NSCLC): 13.4 µM
- TGI (SW-620 colon): > 51.3 µM
- TGI (NCI/ADR-RES ovarian): > 80.3 µM
- TGI (NCI-H460 lung): 16.1 µM
- TGI (OVCAR-4 ovarian): 26.7 µM
- TGI (TK-10 renal): 17.3 µM
- TGI (SF-295 CNS): 12.3 µM
- TGI (HCC-2998 colon): 0.752 µM
- TGI (786-0 renal): 21.2 µM
- TGI (OVCAR-8 ovarian): 48 µM
- TGI (HCT-15 colon): 19.9 µM
- TGI (HCT-116 colon): 16.5 µM
- TGI (IGROV1 ovarian): 14.5 µM
- TGI (SF-539 CNS): 16.8 µM
- TGI (M14 melanoma): 20.1 µM
- TGI (U251 CNS): 21.1 µM
- TGI (SK-MEL-5 melanoma): 12.7 µM
- TGI (CAKI-1 renal): 45 µM
- TGI (K-562 leukemia): > 43.7 µM
- TGI (SF-268 CNS): 29.4 µM
- TGI (HT29 colon): 12.8 µM
- TGI (UACC-257 melanoma): 16.7 µM
- TGI (CCRF-CEM leukemia): > 55.3 µM
- TGI (NCI-H522 lung): 17.3 µM
- TGI (RPMI-8226 leukemia): > 41.9 µM
- TGI (A498 renal): 21.4 µM
- TGI (OVCAR-5 ovarian): 25.8 µM
- TGI (HL-60(TB) leukemia): 11.7 µM
- TGI (LOX IMVI melanoma): 11.2 µM
- TGI (SK-MEL-28 melanoma): 21.9 µM
- TGI (BT-549 breast): 26.4 µM
- TGI (SN12C renal): 17.9 µM
- TGI (MDA-N): 14.3 µM
- TGI (NCI-H23 lung): 17.1 µM

SMILES: CSc1nc[nH]c1C(N)=S
- TGI (KM12 colon): > 100 µM
- TGI (MCF7 breast): > 100 µM
- TGI (OVCAR-3 ovarian): > 100 µM
- TGI (ACHN renal): > 100 µM
- TGI (NCI-H226 lung): > 100 µM
- TGI (PC-3 prostate): > 100 µM
- TGI (MDA-MB-231 breast): > 100 µM
- TGI (T-47D breast): > 100 µM
- TGI (SK-OV-3 ovarian): > 100 µM
- TGI (RXF 393 renal): > 100 µM
- TGI (UACC-62 melanoma): > 100 µM
- TGI (COLO 205 colon): > 100 µM
- TGI (SK-MEL-2 melanoma): > 100 µM
- TGI (EKVX NSCLC): > 100 µM
- TGI (MALME-3M melanoma): > 100 µM
- TGI (SNB-75 CNS): > 100 µM
- TGI (MDA-MB-435): > 100 µM
- TGI (SNB-19 CNS): > 100 µM
- TGI (A549 NSCLC): > 100 µM
- TGI (HS 578T breast): > 100 µM
- TGI (MOLT-4 leukemia): > 100 µM
- TGI (UO-31 renal): > 100 µM
- TGI (HOP-62 NSCLC): > 100 µM
- TGI (SW-620 colon): > 100 µM
- TGI (NCI/ADR-RES ovarian): > 100 µM
- TGI (TK-10 renal): > 100 µM
- TGI (SF-295 CNS): > 100 µM
- TGI (786-0 renal): > 100 µM
- TGI (OVCAR-8 ovarian): > 100 µM
- TGI (HCT-116 colon): > 100 µM
- TGI (IGROV1 ovarian): > 100 µM
- TGI (SF-539 CNS): > 100 µM
- TGI (M14 melanoma): > 100 µM
- TGI (U251 CNS): > 100 µM
- TGI (SK-MEL-5 melanoma): > 100 µM
- TGI (CAKI-1 renal): > 100 µM
- TGI (SF-268 CNS): > 100 µM
- TGI (HT29 colon): > 100 µM
- TGI (UACC-257 melanoma): > 100 µM
- TGI (NCI-H522 lung): > 100 µM
- TGI (RPMI-8226 leukemia): > 100 µM
- TGI (DU-145 prostate): > 100 µM
- TGI (A498 renal): > 100 µM
- TGI (OVCAR-5 ovarian): > 100 µM
- TGI (HL-60(TB) leukemia): > 100 µM
- TGI (LOX IMVI melanoma): > 100 µM
- TGI (SK-MEL-28 melanoma): > 100 µM
- TGI (BT-549 breast): > 100 µM
- TGI (MDA-N): > 100 µM
- TGI (NCI-H23 lung): > 100 µM
